The source of these data is patent publication US8722849B2, “Polypeptides” (Novo Nordisk A/S, priority 2011, dated 2014).

The solubility is how much of the substance goes into solution per volume.

The series can be described thus: Assay (IV) determination of solubility. In kind it is physicochemical. Here is the method: ASSAY (IV)—Determination of Solubility
The polypeptide was dissolved in water at ˜500 nmol/ml and mixed 1:1 with a series of buffers (100 mM glycylglycine pH 3.0, 100 mM glycylglycine pH 4.0, 100 mM glycylglycine pH 5.0, 100 mM bistrispropane pH 6.0, 100 mM bistrispropane pH 6.5, 100 mM bistrispropane pH 7.0, 100 mM bistrispropane pH 7.5, 100 mM bistrispropane pH 8.0). After 18 hours at room temperature the samples were centrifuged and the polypeptide concentration determined by HPLC.

[1] abbreviates: pH 3, pH 3.0, read-out: Solubility pH 3.0.
Setting [2] is: pH 4, pH 4.0, 18 hours at room temperature, Table 2, read-out: Solubility pH 4.0.
The mark [3] stands for this setting: pH 4, pH 4.0, read-out: Solubility pH 4.0.
Where [4] appears, read: pH 5, pH 5.0, read-out: Solubility pH 5.0.
The mark [5] stands for this setting: pH 6, pH 6.0, read-out: Solubility pH 6.0.
Where [6] appears, read: pH 6.5, pH 6.5, read-out: Solubility pH 6.5.
[7] abbreviates: pH 7, pH 7.0, read-out: Solubility pH 7.0.
The mark [8] stands for this setting: pH 7.5, pH 7.5, read-out: Solubility pH 7.5.

Molecules are shown by their SMILES. Values after ≈ are worked out from the molar mass of the structure shown. Like-named read-outs stand apart in the source and are kept apart here. Starred links: 1 amine or outer side, 2 acyl side, 3 side chain; linkers in the order of their positions; H or OH if unused. Positions of bridges follow the written chain, without caps; N, C: chain ends. Residues, ends and D or L forms follow the SMILES beside them. Groups on a side chain read outwards from the residue. *: point of attachment. C20 diacid = O=C(O)CCCCCCCCCCCCCCCCCCC(=O)*; γGlu = O=C(O)[C@H](CCC(=O)[*:2])N[*:1]; AEEA = NCCOCCOCC(=O)O

As to `CC[C@H](C)[C@H](NC(=O)[C@H](CCCCNC(=O)COCCOCCNC(=O)COCCOCCNC(=O)CC[C@H](NC(=O)CCCCCCCCCCCCCCCCCCC(=O)O)C(=O)O)NC(=O)CNC(=O)[C@H](Cc1ccccc1)NC(=O)[C@H](CC(N)=O)NC(=O)[C@H](CO)NC(=O)[C@H](CO)NC(=O)[C@H](CO)NC(=O)[C@H](Cc1c[nH]cn1)NC(=O)[C@H](Cc1c[nH]cn1)NC(=O)[C@H](CC(C)C)NC(=O)[C@H](Cc1ccccc1)NC(=O)[C@H](CCC(=O)O)NC(=O)[C@H](C)NC(=O)[C@H](CC(C)C)NC(=O)[C@H](CCCNC(=N)N)NC(=O)[C@H](CCC(N)=O)NC(=O)[C@@H](NC(=O)[C@H](C)NC(=O)[C@@H]1CSSC[C@H](NC(=O)[C@@H](N)CCCCN)C(=O)N[C@@H](CC(N)=O)C(=O)N[C@@H]([C@@H](C)O)C(=O)N[C@@H](C)C(=O)N[C@@H]([C@@H](C)O)C(=O)N1)[C@@H](C)O)C(=O)N[C@@H](CC(C)C)C(=O)N[C@@H](CO)C(=O)N[C@@H](CO)C(=O)N[C@H](C(=O)N[C@@H](CC(N)=O)C(=O)N[C@H](C(=O)NCC(=O)N[C@@H](CO)C(=O)N[C@@H](Cc1c[nH]cn1)C(=O)N[C@H](C(=O)N[C@@H](Cc1ccc(O)cc1)C(N)=O)[C@@H](C)O)C(C)C)[C@@H](C)O` [Example 133, N-epsilon25-[2-(2-{2-[2-(2-{2-[(S)-4-Carboxy-4-(19-carboxyheptadecanoylamino)butyrylamino]ethoxy}ethoxy)acetylamino]ethoxy}ethoxy)acetyl]-[Glu14,His17,Ser21,Lys25,Ser28,Ser29.His35]-pramlintide] (H-KCNTATCATQRLAEFLHHSSSNFGK([AEEA-AEEA-γGlu-C20 diacid])ILSSTNVGSHTY-NH2; disulfide 2-7), the solubility is, setting by setting: under setting [1], more than 200 µM; under setting [2], more than 200 µM; under setting [3], more than 200 µM; under setting [4], 107 µM (≈ 509 µg/mL); under setting [5], 1 µM (≈ 4.75 µg/mL); under setting [6], 1 µM (≈ 4.75 µg/mL). In addition, the solubility was 1 µM (≈ 4.75 µg/mL) under setting [7] and 1 µM (≈ 4.75 µg/mL) under setting [8].
Regarding `CC[C@H](C)[C@H](NC(=O)[C@H](CCCCNC(=O)COCCOCCNC(=O)COCCOCCNC(=O)CC[C@H](NC(=O)CCCCCCCCCCCCCCCCCCC(=O)O)C(=O)O)NC(=O)CNC(=O)[C@H](Cc1ccccc1)NC(=O)[C@H](CC(N)=O)NC(=O)[C@H](Cc1c[nH]cn1)NC(=O)[C@H](CO)NC(=O)[C@H](CO)NC(=O)[C@H](Cc1c[nH]cn1)NC(=O)[C@H](Cc1c[nH]cn1)NC(=O)[C@H](CC(C)C)NC(=O)[C@H](Cc1ccccc1)NC(=O)[C@H](CC(N)=O)NC(=O)[C@H](C)NC(=O)[C@H](CC(C)C)NC(=O)[C@H](CCCNC(=N)N)NC(=O)[C@H](CCC(N)=O)NC(=O)[C@@H](NC(=O)[C@H](C)NC(=O)[C@@H]1CSSC[C@H](NC(=O)[C@@H](N)CCCCN)C(=O)N[C@@H](CC(N)=O)C(=O)N[C@@H]([C@@H](C)O)C(=O)N[C@@H](C)C(=O)N[C@@H]([C@@H](C)O)C(=O)N1)[C@@H](C)O)C(=O)N[C@@H](CC(C)C)C(=O)N[C@@H](CO)C(=O)N[C@@H](CO)C(=O)N[C@H](C(=O)N[C@@H](CC(N)=O)C(=O)N[C@H](C(=O)NCC(=O)N[C@@H](CO)C(=O)N[C@@H](Cc1c[nH]cn1)C(=O)N[C@H](C(=O)N[C@@H](Cc1ccc(O)cc1)C(N)=O)[C@@H](C)O)C(C)C)[C@@H](C)O` [Example 134, N-epsilon25-[2-(2-{2-[2-(2-{2-[(S)-4-Carboxy-4-(19-carboxyheptadecanoylamino)butyrylamino]ethoxy}ethoxy)acetylamino]ethoxy}ethoxy)acetyl]-[His17,His21,Lys25,Ser28,Ser29.His35]-pramlintide] (H-KCNTATCATQRLANFLHHSSHNFGK([AEEA-AEEA-γGlu-C20 diacid])ILSSTNVGSHTY-NH2; disulfide 2-7), the solubility runs as follows: under setting [1], more than 200 µM; under setting [3], more than 200 µM; under setting [4], more than 200 µM; under setting [5], 3 µM (≈ 14.4 µg/mL); under setting [6], 1 µM (≈ 4.79 µg/mL); under setting [7], 2 µM (≈ 9.58 µg/mL). Moreover, the solubility runs as follows: under setting [8], 3 µM (≈ 14.4 µg/mL); (pH 8, pH 8.0, read-out: Solubility pH 8.0) 2 µM (≈ 9.58 µg/mL).
For the molecule `CC[C@H](C)[C@H](NC(=O)[C@H](CCCCNC(=O)COCCOCCNC(=O)COCCOCCNC(=O)CC[C@H](NC(=O)CCCCCCCCCCCCCCCCCCC(=O)O)C(=O)O)NC(=O)CNC(=O)[C@H](Cc1ccccc1)NC(=O)[C@H](CC(N)=O)NC(=O)[C@H](CC(N)=O)NC(=O)[C@H](CO)NC(=O)[C@H](CO)NC(=O)[C@H](Cc1c[nH]cn1)NC(=O)[C@H](Cc1c[nH]cn1)NC(=O)[C@H](CC(C)C)NC(=O)[C@H](Cc1ccccc1)NC(=O)[C@H](CC(N)=O)NC(=O)[C@H](C)NC(=O)[C@H](CC(C)C)NC(=O)[C@H](CCCNC(=N)N)NC(=O)[C@H](CCC(N)=O)NC(=O)[C@@H](NC(=O)[C@H](C)NC(=O)[C@@H]1CSSC[C@H](NC(=O)[C@@H](N)CCCCN)C(=O)N[C@@H](CC(N)=O)C(=O)N[C@@H]([C@@H](C)O)C(=O)N[C@@H](C)C(=O)N[C@@H]([C@@H](C)O)C(=O)N1)[C@@H](C)O)C(=O)N[C@@H](CC(C)C)C(=O)N[C@@H](CO)C(=O)N[C@@H](CO)C(=O)N[C@H](C(=O)N[C@@H](CC(N)=O)C(=O)N[C@H](C(=O)NCC(=O)N[C@@H](CO)C(=O)N[C@@H](Cc1c[nH]cn1)C(=O)N[C@H](C(=O)N[C@@H](Cc1ccc(O)cc1)C(N)=O)[C@@H](C)O)C(C)C)[C@@H](C)O` [Example 140, N-epsilon25-[2-(2-{2-[2-(2-{2-[(S)-4-Carboxy-4-(19-carboxyheptadecanoylamino)butyrylamino]ethoxy}ethoxy)acetylamino]ethoxy}ethoxy)acetyl]-[His17,Lys25,Ser28,Ser29,His35]-pramlintide] (H-KCNTATCATQRLANFLHHSSNNFGK([AEEA-AEEA-γGlu-C20 diacid])ILSSTNVGSHTY-NH2; disulfide 2-7), the solubility runs as follows: under setting [1], more than 200 µM; under setting [2], more than 200 µM; under setting [3], more than 200 µM; under setting [4], 104 µM (≈ 496 µg/mL); under setting [5], 2 µM (≈ 9.53 µg/mL); under setting [6], 1 µM (≈ 4.77 µg/mL). Further, the solubility runs as follows: under setting [7], 1 µM (≈ 4.77 µg/mL); under setting [8], 1 µM (≈ 4.77 µg/mL).
Turning to `CC[C@H](C)[C@H](NC(=O)[C@@H]1CCCN1C(=O)CNC(=O)[C@H](Cc1ccccc1)NC(=O)[C@H](CC(N)=O)NC(=O)[C@H](CCCCNC(=O)COCCOCCNC(=O)COCCOCCNC(=O)CC[C@H](NC(=O)CCCCCCCCCCCCCCCCCCC(=O)O)C(=O)O)NC(=O)[C@H](CO)NC(=O)[C@H](CO)NC(=O)[C@H](Cc1c[nH]cn1)NC(=O)[C@H](Cc1c[nH]cn1)NC(=O)[C@H](CC(C)C)NC(=O)[C@H](Cc1ccccc1)NC(=O)[C@H](CC(N)=O)NC(=O)[C@H](C)NC(=O)[C@H](CC(C)C)NC(=O)[C@H](CCCNC(=N)N)NC(=O)[C@H](CCC(N)=O)NC(=O)[C@@H](NC(=O)[C@H](C)NC(=O)[C@@H]1CSSC[C@H](NC(=O)[C@@H](N)CCCCN)C(=O)N[C@@H](CC(N)=O)C(=O)N[C@@H]([C@@H](C)O)C(=O)N[C@@H](C)C(=O)N[C@@H]([C@@H](C)O)C(=O)N1)[C@@H](C)O)C(=O)N[C@@H](CC(C)C)C(=O)N[C@@H](CO)C(=O)N1CCC[C@H]1C(=O)N[C@H](C(=O)N[C@@H](CC(N)=O)C(=O)N[C@H](C(=O)NCC(=O)N[C@@H](CO)C(=O)N[C@@H](Cc1c[nH]cn1)C(=O)N[C@H](C(=O)N[C@@H](Cc1ccc(O)cc1)C(N)=O)[C@@H](C)O)C(C)C)[C@@H](C)O` [Example 141, N-epsilon21-[2-(2-{2-[2-(2-{2-[(S)-4-Carboxy-4-(19-carboxyheptadecanoylamino)butyrylamino]ethoxy}ethoxy)acetylamino]ethoxy}ethoxy)acetyl]-[His17,Lys21,Ser28,His35]-pramlintide] (H-KCNTATCATQRLANFLHHSSK([AEEA-AEEA-γGlu-C20 diacid])NFGPILSPTNVGSHTY-NH2; disulfide 2-7), the solubility is more than 200 µM under setting [1]; more than 200 µM under setting [3]; more than 200 µM under setting [4]; 84 µM (≈ 400 µg/mL) under setting [5]; 3 µM (≈ 14.3 µg/mL) under setting [6]; 2 µM (≈ 9.52 µg/mL) under setting [7]. Further, the solubility under setting [8] worked out at 1 µM (≈ 4.76 µg/mL).
